Reference: publication PMC9137900, “Engineering Collariella virescens Peroxygenase for Epoxides Production from Vegetable Oil” (Antioxidants, 2022)
Residue numbers refer to the chain shown, from its start.

Experiments:
Assay type in all cases: biochemical
[1] = target: T1, rCviUPO (native, non-mutated recombinant CviUPO) (Achaetomiella virescens, UniProt Z9FBJ6W4Y2, I60A/L63A/F87A/T157A, form not given); test: GC-MS quantification of oxygenated products, […] min reactions; conditions: 24 mM H2O2, 50 mM phosphate pH 7, 20% acetone; substrate-inhibition model
T1 construct: codon-optimized gene in pET23a, expressed in E. coli as active cytosolic enzyme without purification tag; heme-thiolate (EC 1.11.2.1); purified by cation exchange and Superdex 75
T1 sequence (Z9FBJ6W4Y2 1-226 I60A/L63A/F87A/T157A): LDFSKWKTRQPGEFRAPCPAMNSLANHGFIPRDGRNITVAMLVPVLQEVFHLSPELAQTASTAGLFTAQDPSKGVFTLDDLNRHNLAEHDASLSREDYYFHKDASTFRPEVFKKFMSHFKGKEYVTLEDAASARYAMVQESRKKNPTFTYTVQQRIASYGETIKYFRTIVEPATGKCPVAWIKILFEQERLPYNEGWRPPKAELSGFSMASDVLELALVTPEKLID

[2] = target: T2, rCviUPO (native, non-mutated recombinant CviUPO) (Achaetomiella virescens, UniProt Z9FBJ6W4Y2); test: as above; conditions: 24 mM H2O2, 50 mM phosphate pH 7, 20% acetone
T2 construct: codon-optimized gene in pET23a, expressed in E. coli as active cytosolic enzyme without purification tag; heme-thiolate (EC 1.11.2.1); purified by cation exchange and Superdex 75
T2 sequence (Z9FBJ6W4Y2 1-226): T1 sequence (Z9FBJ6W4Y2 1-226 I60A/L63A/F87A/T157A) with A60I, A63L, A87F, A157T

[3] = target: T3, rCviUPO (native, non-mutated recombinant CviUPO) (Achaetomiella virescens, UniProt Z9FBJ6W4Y2, F87A/T157A, form not given); test: as above; conditions: 24 mM H2O2, 50 mM phosphate pH 7, 20% acetone; substrate-inhibition model
T3 construct: codon-optimized gene in pET23a, expressed in E. coli as active cytosolic enzyme without purification tag; heme-thiolate (EC 1.11.2.1); purified by cation exchange and Superdex 75
T3 sequence (Z9FBJ6W4Y2 1-226 F87A/T157A): T1 sequence (Z9FBJ6W4Y2 1-226 I60A/L63A/F87A/T157A) with A60I, A63L

[4] = target: T4, rCviUPO (native, non-mutated recombinant CviUPO) (Achaetomiella virescens, UniProt Z9FBJ6W4Y2, T157A); test: as above; conditions: 24 mM H2O2, 50 mM phosphate pH 7, 20% acetone
T4 construct: codon-optimized gene in pET23a, expressed in E. coli as active cytosolic enzyme without purification tag; heme-thiolate (EC 1.11.2.1); purified by cation exchange and Superdex 75
T4 sequence (Z9FBJ6W4Y2 1-226 T157A): T1 sequence (Z9FBJ6W4Y2 1-226 I60A/L63A/F87A/T157A) with A60I, A63L, A87F

[5] = target: T5, rCviUPO (native, non-mutated recombinant CviUPO) (Achaetomiella virescens, UniProt Z9FBJ6W4Y2, F87A); test: as above; conditions: substrate inhibition constant; 24 mM H2O2, 50 mM phosphate pH 7, 20% acetone
T5 construct: codon-optimized gene in pET23a, expressed in E. coli as active cytosolic enzyme without purification tag; heme-thiolate (EC 1.11.2.1); purified by cation exchange and Superdex 75
T5 sequence (Z9FBJ6W4Y2 1-226 F87A): T1 sequence (Z9FBJ6W4Y2 1-226 I60A/L63A/F87A/T157A) with A60I, A63L, A157T

[6] = target: T5, rCviUPO (native, non-mutated recombinant CviUPO); test: as above; conditions: 24 mM H2O2, 50 mM phosphate pH 7, 20% acetone; substrate-inhibition model
[7] = target: T1, rCviUPO (native, non-mutated recombinant CviUPO); test: as above; conditions: substrate inhibition constant; 24 mM H2O2, 50 mM phosphate pH 7, 20% acetone
[8] = target: T3, rCviUPO (native, non-mutated recombinant CviUPO); test: as above; conditions: substrate inhibition constant; 24 mM H2O2, 50 mM phosphate pH 7, 20% acetone
[9] = target: T3, rCviUPO (native, non-mutated recombinant CviUPO); test: spectrophotometric initial rates, […] nm; conditions: 24 mM H2O2, 0.1 M acetate pH 3 or 5

CCCCCCCC/C=C\CCCCCCCC(=O)O [C18:1, oleic acid]
Km [1]: 399 ± 94.6 µM
Km [2]: 58.8 ± 6 µM
Km [3]: 51.6 ± 5.4 µM
Km [4]: 89 ± 16.4 µM
ki [5]: 1120 ± 400 µM
Km [6]: 278 ± 49 µM
ki [7]: 1360 ± 710 µM
ki [8]: 2900 ± 610 µM

COc1ccc(CO)cc1OC [veratryl alcohol]
Km [9]: 15000 µM
